Experimental data: paper PMC11873939, “Target Identification with Live-Cell Photoaffinity Labeling and Mechanism of Action Elucidation of ARN23765, a Highly Potent CFTR Corrector” (Journal of Medicinal Chemistry, 2025)

How the values were obtained:
[1] = target: T1, F508del-CFTR (Homo sapiens, UniProt P13569, DEL508-508); experiment: HS-YFP functional assay in CFBE41o- cells stably overexpressing F508del-CFTR; format: cell-based; conditions: 24 h treatment
T1 construct: expressed in transfected cells
Protocol: These analogues were tested in the functional assay on the human bronchial epithelia-derived cell line, CFBE41o-, which stably overexpresses F508del-CFTR and the halide-sensitive yellow fluorescent protein (HS-YFP).[31] […]
(§1) HS-YFP-based assay for CFTR activity
(§2) Twenty-four hours after seeding on 96-well plates, CFBE41o- cells stably over-expressing F508del-CFTR and the HS-YFP were treated with test compounds at different concentrations in the 3 nM-10 µM range.1 Cells treated with vehicle alone (DMSO) and with ARN23765, respectively, served as negative and positive controls. The following day, cells were washed with PBS containing (in mM) 137 NaCl, 2.7 KCl, 8.1 Na2HPO4, 1.5 KH2PO4, 1.0 CaCl2, and 0.5 MgCl2. Cells were then incubated for 25 min with […] of PBS plus forskolin (20 µM) and VX-770 (1 µM) to maximally stimulate F508del-CFTR. Cells were then transferred to a microplate reader (FluoStar Galaxy; BMG Labtech, Offenburg, Germany) for CFTR activity determination. The plate reader was equipped with high-quality excitation (HQ500/20X: 500 ± 10 nm) and emission (HQ535/30M: 535 ± 15 nm) filters for YFP (Chroma Technology). Each assay comprised a continuous 14 s fluorescence reading, 2 s before and 12 s after injection of […] of an iodide-containing solution (PBS with Cl- replaced by I-; final I- concentration […]). Data were normalized to the initial background-subtracted fluorescence. To determine I- influx rate, the final 11 s of the data for each well were fitted with an exponential function to extrapolate initial slope (dF/dt). Reproducibility of results was confirmed by performing three independent experiments. […]

[2] = target: T2, R170G-CFTR (Homo sapiens, UniProt P13569, R170G); experiment: FLIPR membrane potential assay of CFTR channel activity in transfected HEK293 cells; format: cell-based; conditions: HEK293, 24 h, 10 nM
T2 construct: CFTR identification in pull-down studies and analysis of full-length CFTR in protein maturation assays; expressed in transfected cells; host or cells: HEK293 (transient)
Protocol: as §1
as §2, with “fluorescence.” for “fluorescence. To determine I- influx rate, the final 11 s of the data for each well were fitted with an exponential function to extrapolate initial slope (dF/dt). Reproducibility of results was confirmed by performing three independent experiments.”
(§3) Cell lysates or eluates from pull-down experiments were resolved by SDS-PAGE on 4-8 % tris-acetate gels (EA0378BOX, Life technologies) and were transferred into PVDF membranes (Immobilion-E IEVH00005, Millipore). […] Images were acquired with Chemidoc MP (BIO-RAD laboratories) and quantified with Image J software.
(§4) CFTR Channel function analysis by fluorometric imaging plate reader functional (FLIPR) assay FLIPR assay was performed as previously described.3 Briefly, HEK293 cells were seeded in 96-well plates (black, flat bottom, Corning) and transfected with mutated CFTR constructs. […]
(§5) µM) for 24 h at 30 °C or 37 °C. […] The plate was then read in a fluorescence plate reader (SpectraMax i3, Molecular Devices) at 37 °C (excitation: 530 nm, emission: 560 nm). […] CFTR-mediated depolarization was detected as an increase in fluorescence. […] The peak changes in fluorescence were normalized to fluorescence immediately […]

[3] = target: T3, F508del/R1070W-CFTR (Homo sapiens, UniProt P13569, DEL508-508/R1070W); experiment: as above; format: cell-based; conditions: HEK293, 24 h; ARN23765 10 nM, VX-661 3 μM
T3 construct: CFTR identification in pull-down studies and analysis of full-length CFTR in protein maturation assays; expressed in transfected cells; host or cells: HEK293 (transient)
Protocol: as §1
as §2, with “fluorescence.” for “fluorescence. To determine I- influx rate, the final 11 s of the data for each well were fitted with an exponential function to extrapolate initial slope (dF/dt). Reproducibility of results was confirmed by performing three independent experiments.”
as §3, §4, §5

[4] = target: T1, F508del-CFTR; parameters: method as in PMID 32128418; conditions: bronchial epithelial cells from F508del-CFTR CF individuals; cited from earlier work

T1 sequence (P13569 with tags, fused parts or gaps DEL508-508): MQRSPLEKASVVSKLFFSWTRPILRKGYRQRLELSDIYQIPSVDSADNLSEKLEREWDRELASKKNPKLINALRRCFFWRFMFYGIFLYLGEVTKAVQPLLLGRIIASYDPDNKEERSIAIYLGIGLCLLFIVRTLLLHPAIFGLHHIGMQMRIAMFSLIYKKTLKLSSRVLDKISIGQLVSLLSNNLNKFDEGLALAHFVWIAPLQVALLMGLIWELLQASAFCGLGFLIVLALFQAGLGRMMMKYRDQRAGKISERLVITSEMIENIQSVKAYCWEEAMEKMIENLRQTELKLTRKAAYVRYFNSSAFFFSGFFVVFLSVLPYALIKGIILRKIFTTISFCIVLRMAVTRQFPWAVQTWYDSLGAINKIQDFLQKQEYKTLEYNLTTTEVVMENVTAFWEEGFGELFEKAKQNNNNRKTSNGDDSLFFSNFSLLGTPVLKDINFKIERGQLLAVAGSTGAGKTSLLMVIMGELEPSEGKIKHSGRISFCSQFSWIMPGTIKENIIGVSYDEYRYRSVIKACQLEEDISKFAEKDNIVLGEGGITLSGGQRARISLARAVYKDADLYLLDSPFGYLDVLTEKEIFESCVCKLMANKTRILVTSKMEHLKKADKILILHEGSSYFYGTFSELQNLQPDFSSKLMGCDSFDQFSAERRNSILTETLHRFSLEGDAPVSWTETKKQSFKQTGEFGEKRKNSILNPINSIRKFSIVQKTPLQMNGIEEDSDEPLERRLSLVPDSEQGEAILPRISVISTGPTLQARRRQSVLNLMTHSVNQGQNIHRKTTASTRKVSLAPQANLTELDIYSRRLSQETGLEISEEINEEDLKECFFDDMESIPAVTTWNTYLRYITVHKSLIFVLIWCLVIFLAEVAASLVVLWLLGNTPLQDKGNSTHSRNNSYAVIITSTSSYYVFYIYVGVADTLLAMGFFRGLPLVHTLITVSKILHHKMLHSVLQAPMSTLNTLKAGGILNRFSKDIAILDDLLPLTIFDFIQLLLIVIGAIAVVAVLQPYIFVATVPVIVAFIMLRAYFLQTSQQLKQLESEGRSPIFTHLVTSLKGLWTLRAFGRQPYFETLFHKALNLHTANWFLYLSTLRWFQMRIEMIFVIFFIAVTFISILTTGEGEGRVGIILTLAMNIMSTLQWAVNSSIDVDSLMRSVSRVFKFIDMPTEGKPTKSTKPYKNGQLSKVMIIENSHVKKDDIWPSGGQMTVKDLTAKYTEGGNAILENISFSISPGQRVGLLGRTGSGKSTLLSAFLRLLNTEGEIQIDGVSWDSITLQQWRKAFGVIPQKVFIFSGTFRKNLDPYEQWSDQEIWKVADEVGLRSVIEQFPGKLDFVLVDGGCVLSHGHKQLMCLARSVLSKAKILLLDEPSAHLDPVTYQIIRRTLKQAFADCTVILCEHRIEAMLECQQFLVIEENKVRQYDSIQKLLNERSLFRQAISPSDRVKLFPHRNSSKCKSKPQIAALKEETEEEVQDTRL
T3 sequence (P13569 with tags, fused parts or gaps DEL508-508/R1070W): as the sequence (P13569 with tags, fused parts or gaps DEL508-508) above, with R1069W counted along it
T2 sequence (P13569 whole entry R170G): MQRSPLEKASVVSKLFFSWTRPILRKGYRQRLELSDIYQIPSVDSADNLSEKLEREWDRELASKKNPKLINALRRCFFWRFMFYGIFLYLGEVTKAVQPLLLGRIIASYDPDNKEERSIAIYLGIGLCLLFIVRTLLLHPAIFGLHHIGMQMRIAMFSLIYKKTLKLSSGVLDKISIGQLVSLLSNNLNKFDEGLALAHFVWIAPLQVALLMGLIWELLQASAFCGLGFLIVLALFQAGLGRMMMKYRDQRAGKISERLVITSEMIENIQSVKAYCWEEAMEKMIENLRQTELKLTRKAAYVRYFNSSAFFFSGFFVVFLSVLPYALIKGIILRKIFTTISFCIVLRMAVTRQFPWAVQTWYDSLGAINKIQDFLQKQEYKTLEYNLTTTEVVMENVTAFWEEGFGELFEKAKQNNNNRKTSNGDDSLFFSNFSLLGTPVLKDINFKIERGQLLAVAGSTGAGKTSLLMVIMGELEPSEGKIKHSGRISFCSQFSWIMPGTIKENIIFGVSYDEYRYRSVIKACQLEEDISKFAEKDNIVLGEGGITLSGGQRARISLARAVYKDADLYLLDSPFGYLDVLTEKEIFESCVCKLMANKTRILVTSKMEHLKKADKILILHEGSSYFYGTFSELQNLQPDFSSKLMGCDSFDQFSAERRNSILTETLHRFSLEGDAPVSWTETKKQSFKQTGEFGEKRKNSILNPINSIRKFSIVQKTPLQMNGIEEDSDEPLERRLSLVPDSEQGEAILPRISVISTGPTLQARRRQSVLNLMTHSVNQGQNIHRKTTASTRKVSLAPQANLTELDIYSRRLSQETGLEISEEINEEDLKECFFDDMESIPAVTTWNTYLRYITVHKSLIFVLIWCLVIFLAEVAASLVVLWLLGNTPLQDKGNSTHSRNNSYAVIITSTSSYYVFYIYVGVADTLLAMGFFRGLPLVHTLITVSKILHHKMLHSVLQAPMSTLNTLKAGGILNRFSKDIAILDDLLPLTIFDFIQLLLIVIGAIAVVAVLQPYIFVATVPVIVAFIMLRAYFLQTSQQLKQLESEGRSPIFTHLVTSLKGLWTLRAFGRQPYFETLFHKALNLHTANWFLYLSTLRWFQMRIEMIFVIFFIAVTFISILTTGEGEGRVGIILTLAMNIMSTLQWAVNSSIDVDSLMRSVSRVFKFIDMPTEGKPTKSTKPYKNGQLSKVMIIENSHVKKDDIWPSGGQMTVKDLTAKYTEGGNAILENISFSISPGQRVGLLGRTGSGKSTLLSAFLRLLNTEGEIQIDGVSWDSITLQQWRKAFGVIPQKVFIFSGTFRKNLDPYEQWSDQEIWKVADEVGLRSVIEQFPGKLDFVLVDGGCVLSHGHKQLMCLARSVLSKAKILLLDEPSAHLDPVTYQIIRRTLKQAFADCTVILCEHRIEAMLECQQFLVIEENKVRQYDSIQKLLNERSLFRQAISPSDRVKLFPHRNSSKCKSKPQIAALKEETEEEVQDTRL

SMILES: CN(C(=O)c1cccc(-n2nc(C(F)(F)F)c3c2[C@@H](Oc2ccc(C(=O)O)cc2)CCC3)c1)c1ccc2c(c1)OC(F)(F)O2 [ARN23765]
- EC50 ([1]; 3 nM-10 µM range): < 3 nM
- HS-YFP assay in CFBE41o- cells Emax ([1]; values normalized to DMSO-incubated cells): 2.7
- R170G-CFTR activity (FLIPR) [2]: improving
- F508del/R1070W channel activity (FLIPR) [3]: further enhanced
- Potency in rescuing CFTR function [4]: subnanomolar
